Test results from US20020065314A1, “COMPOSITIONS AND METHOD FOR STIMULATING HAIR GROWTH” (priority 1995, published 2002).
Entries after “also recorded” stand apart in the source; their conditions may differ.

How the values were obtained:
[1] = system: C57BL/KsJ db/+ mice and 6 other strains of mice; test: Single topical application to shaved dorsum of mice: cutaneous changes and hair growth; type: in vivo, mouse
From the text: The dorsal aspect of C57BL/KsJ db/+ female mice was shaved and a single topical dose of n-butyl cyanoacrylate (formulated as Nexaband^R Liquid) was applied. […] At this early stage some of these new aggregates form laminae and appear to constitute neo-angiogenesis. At day 1 post application, the gross appearance of inflammation was still apparent, and there was microscopic evidence for the formation of a lumen from an aggregate of cells in the subcutaneous layer. […] These changes were only observed in the treated area. […] Between eight and 12 days post application, hair follicles and new hair were present at the sites of application; the remainder of the shaved area remained hairless. Epidermal and dermal thickening and new hair follicle development in treated skin were pronounced until days 10-20 post application (FIGS. 3A-3B), at which time large mature hair follicles traversed the entire thickness of the dermis and subcutaneous layer (FIG. 3C). Hair follicle density reached a maximum level at about days 20-30 post application, at which time the epithelium and connective tissue elements began to return to their pre-treatment appearance (FIGS. 4A-4B).
(§1) At the gross level, the hair growth in the shaved treated area occurs at 8-12 days and reaches full length at about 14-20 days post treatment, however, the remainder of the shaved untreated area remains hairless and the hair follicles small (in telogen (resting) phase)(5A-5B). The response of hair growth to the n-butyl cyanoacrylate stimulus is very similar in 6 other strains of mice (C57BL/KsJ +/+, C57BL/KsJ db/db, Balb/cBYj +/+, Balb/cBYj nu/+, HRS/J hr/+, and RHJ/LeJ hr^rh-j/+) (FIGS. 6A-6C) and Sprague Dawley rats (FIGS. 7A-7B). The hair growth rate in the fastest growth period (at about 10-15 days post treatment) reaches 1 mm per day. This is entirely consistent with the microscopically observed stimulation of hair follicles following treatment.

[2] = system: C57BL/KsJ db/+ and C57BL/KsJ db/db mice; test: Dose of n-butyl cyanoacrylate and response of hair growth (macroscopic score); type: in vivo, mouse
Experimental: The effect of n-butyl cyanoacrylate concentration on stimulation of hair growth was investigated as follows. Five mice of each strains C57BL/KsJ db/+ and C57BL/KsJ db/db were shaved on the dorsum, treated with a single topical application of either undiluted Nexaband^R Liquid (containing about 10 mg of n-butyl cyanoacrylate per 10 μl), or Nexaband^R Liquid diluted to 50% or 25% with vegetable oil. Hair growth was macroscopically scored at 49, 61 and 86 days after treatment.

C57BL/KsJ db/+ mice = test: Inhibition of n-butyl cyanoacrylate-stimulated hair growth by neutralizing antibodies; type: in vivo, mouse; conditions: day 14, sites 2 and 3, 10 μl per site
Experimental: Forty mice of strain C57BL/KsJ db/+ eight weeks old were divided into four equal groups (A-D). The dorsal aspect of the mice were shaved, and five different sites on the dorsum were designated (sites 1-5). Each site was 5-6 mm^2. Animals of group A were treated topically at sites 1, 2 & 3 with n-butyl cyanoacrylate only (10 μl per site) formulated as Nexaband^R Liquid. Animals of group B were treated topically at sites 1, 2 & 3 with the same dose of n-butyl cyanoacrylate, but sites 1 and 3 subsequently received subcutaneous injections of either anti-TGF-β1 neutralizing antibody (1 μg per g of body weight) in PBS/0.1% BSA (at site 1), or PBS/0.1% BSA as a matched control (at site 3). Group C animals were treated as for Group B except that anti-EGF neutralizing antibody was injected at site 1 instead of anti-TGF-pi. […] Group D animals were shaved only and received no treatment.
Hair regeneration was documented by macroscopic observations supported by serial photographs of treatment sites. Histological observations were made on skin biopsies taken at frequent intervals ranging from 6 hours to 21 days post-treatment.

Sprague Dawley rats = test: Single topical application, hair growth in rats; type: in vivo, rat
From the text: as §1

[3] = system: C57BL/KsJ db/+ and C57BL/KsJ db/db mice; test: Effect of isobutyl cyanoacrylate on hair growth, topical; type: in vivo, mouse; conditions: C57BL/KsJ +/+, 10 μl cm^−2 topical
[4] = system: C57BL/KsJ db/+ and C57BL/KsJ db/db mice; test: as above; type: in vivo, mouse; conditions: C57BL/KsJ db/db, 10 μl cm^−2 topical
Experimental: The following experiment was performed to identify the effect of isobutyl cyanoacrylate, a structural analog of n-butyl cyanoacrylate, on hair growth. The shaved backs of C57BL/KsJ db/+ and C57BL/KsJ db/db mice were treated topically at a dose of 10 μl cm^−2 with either isobutyl cyanoacrylate (Sigma Chemical Co., St Louis, Mo.) or n-butyl cyanoacrylate.

TGF-β2,3 = test: Immunohistochemistry of growth factors in treated skin; type: in vivo, mouse; conditions: throughout the study period
Experimental: Forty stock female mice of strain C57BL/KsJ db/+ at eight weeks of age were treated with a single dose of n-butyl cyanoacrylate applied topically to the shaved dorsum. Animals were sacrificed at days 4, 6, 8, 10, 12, 14, 16, 18, 20, and 22 post-treatment, and skin samples were excised to yield an area of n-butyl cyanoacrylate treated skin together with a contiguous, adjacent sample of untreated skin. In preparation for immunohistochemistry, samples were washed in PBS, fixed in 10% formalin, and secondarily fixed in Bouin's solution prior to paraffin embedding. Multiple 4-5 μm sections were placed on slides pre-coated with 3-aminopropylethoxysilane.
The following primary antibodies were used: anti-TGF-β1 neutralizing antibody; anti-TGF-β2,3; and anti-EGF receptor.

[5] = C57BL/KsJ db/+, post application
[6] = 25%, C57BL/KsJ db/+, 49 days after treatment
[7] = 25%, C57BL/KsJ db/+, 61 days after treatment
[8] = 25%, C57BL/KsJ db/+, 86 days after treatment
[9] = 25%, C57BL/KsJ db/db, 49 days after treatment
[10] = 25%, C57BL/KsJ db/db, 61 days after treatment
[11] = 25%, C57BL/KsJ db/db, 86 days after treatment
[12] = 50%, C57BL/KsJ db/db, 49 days after treatment
[13] = 50%, C57BL/KsJ db/db, 61 days after treatment
[14] = 50%, C57BL/KsJ db/db, 86 days after treatment

SMILES: C=C(C#N)C(=O)OCCCC [n-butyl cyanoacrylate]
- response of hair growth compared with C57BL/KsJ db/+ ([1]; 6 other strains of mice and Sprague Dawley rats): very similar
- hair growth on dorsum (photograph) ([1]; Balb/cBYj nu/+, 19 days post application): hair growth appears in a circle pattern
- hair follicle number, maximum increase treated vs untreated areas ([1]; C57BL/KsJ db/+): about 2 fold
- histology of treated skin ([1]; C57BL/KsJ db/+, 16 days following application): large mature hair follicles traversing the entire thickness of the skin
- hair growth on dorsum (photograph) ([1]; C57BL/KsJ db/+, 17 days post application): triangle pattern of hair growth
- histology of treated skin vs adjacent untreated area ([1]; C57BL/KsJ db/+, 19 days after topical treatment): high concentration of large mature hair follicles
- scanning electron micrograph, treated vs adjacent untreated area ([1]; C57BL/KsJ db/+, 23 days after treatment): higher density of hairs and deeper hair roots in the treated area
- histology of treated skin ([1]; C57BL/KsJ db/+, day 3 post application): multilayered epidermis, thickened dermis, and epidermal peg elongation; also recorded: evidence of trichogenesis was clearly seen at the treatment site
- histology of treated skin ([1]; C57BL/KsJ db/+, day 10 post application): increase in the number of mature hair follicles; also recorded: new epithelial pegs had developed into mature hair follicles
- thickness of the dermis layer, increase treated vs untreated areas ([1]; C57BL/KsJ db/+, days 16-20 post treatment): 1.5 fold
- thickness of the dermis layer, treated vs untreated areas ([1]; C57BL/KsJ db/+, first day after treatment): about 1.3 fold
- time of maximum hair follicle density [1, 5]: 20 to 30 days
- time until which epidermal and dermal thickening and new hair follicle development were pronounced [1, 5]: 10 to 20 days
- time at which dermis returns to normal thickness ([1]; C57BL/KsJ db/+, post treatment): about 70 days
- time at which epidermis returns to normal thickness ([1]; C57BL/KsJ db/+, post treatment): about 40 days
- time at which hair reaches full length ([1]; C57BL/KsJ db/+, post treatment): 14 to 20 days
- thickness of the epidermis layer, maximum increase in treated areas vs maximum level in untreated areas ([1]; C57BL/KsJ db/+, topical): about 2 fold
- early change of treated skin ([1]; C57BL/KsJ db/+, within six hours of application): slight thickening of the treated skin
- time at which new hair follicle formation occurs in treated area ([1]; after treatment): 2 to 3 days
- hair growth rate in the fastest growth period ([1]; at about 10-15 days post treatment): 1 mm per day
- hair growth on dorsum (photograph) ([1]; diabetic C57BL/KsJ db/db, 27 days post application): hair growth appears in a rectangle pattern
- hair follicle number, maximum in treated vs untreated areas ([1]; diabetic strain C57BL/KsJ db/db): about 4 fold
- time hair regrowth in treated areas remains unchanged while shaved untreated areas are hairless ([1]; genetically healing-impaired diabetic mice, post treatment): more than 216 days
- time over which no shedding of induced hair has been found ([1]; mice, post treatment): > 335 days
- length of new hairs over those in adjacent untreated area ([1]; mouse, in vivo): 1-2 mm
- localization of the hair growth response ([1]; mouse, in vivo): completely localized to the area where the stimulator is applied
- time at which hair growth occurs (is seen) in shaved treated area ([1]; post treatment, single topical dose): 8 to 12 days
- hair regrowth after repeated shaving ([1]; single application, area subsequently shaved three times at 20-day intervals): the hair keeps regrowing in the treated areas
- Number of Animals Exhibiting Hair Growth, Score 0 [2, 6]: 4
- Number of Animals Exhibiting Hair Growth, Score 1+ [2, 6]: 1
- Number of Animals Exhibiting Hair Growth, Score 0 [2, 7]: 2
- Number of Animals Exhibiting Hair Growth, Score 1+ [2, 7]: 3
- Number of Animals Exhibiting Hair Growth, Score 0 [2, 8]: 3
- Number of Animals Exhibiting Hair Growth, Score 1+ [2, 8]: 2
- Number of Animals Exhibiting Hair Growth, Score 0 [2, 9]: 2
- Number of Animals Exhibiting Hair Growth, Score 2+ [2, 9]: 2
- Number of Animals Exhibiting Hair Growth, Score 3+ [2, 9]: 1
- Number of Animals Exhibiting Hair Growth, Score 0 [2, 10]: 2
- Number of Animals Exhibiting Hair Growth, Score 1+ [2, 10]: 1
- Number of Animals Exhibiting Hair Growth, Score 2+ [2, 10]: 1
- Number of Animals Exhibiting Hair Growth, Score 3+ [2, 10]: 1
- Number of Animals Exhibiting Hair Growth, Score 2+ [2, 11]: 3
- Number of Animals Exhibiting Hair Growth, Score 3+ [2, 11]: 2
- Number of Animals Exhibiting Hair Growth, Score 2+ [2, 12]: 2
- Number of Animals Exhibiting Hair Growth, Score 3+ [2, 12]: 3
- Number of Animals Exhibiting Hair Growth, Score 2+ [2, 13]: 1
- Number of Animals Exhibiting Hair Growth, Score 3+ [2, 13]: 4
- Number of Animals Exhibiting Hair Growth, Score 2+ [2, 14]: 2
- Number of Animals Exhibiting Hair Growth, Score 3+ [2, 14]: 3
- Number of Animals Exhibiting Hair Growth, Score 3+ ([2]; 100% (10 mg/10 μl), C57BL/KsJ db/+, 49 days after treatment): 5
- Number of Animals Exhibiting Hair Growth, Score 3+ ([2]; 100% (10 mg/10 μl), C57BL/KsJ db/+, 61 days after treatment): 5
- Number of Animals Exhibiting Hair Growth, Score 3+ ([2]; 100% (10 mg/10 μl), C57BL/KsJ db/+, 86 days after treatment): 5
- Number of Animals Exhibiting Hair Growth, Score 3+ ([2]; 100% (10 mg/10 μl), C57BL/KsJ db/db, 49 days after treatment): 5
- Number of Animals Exhibiting Hair Growth, Score 3+ ([2]; 100% (10 mg/10 μl), C57BL/KsJ db/db, 61 days after treatment): 5
- Number of Animals Exhibiting Hair Growth, Score 3+ ([2]; 100% (10 mg/10 μl), C57BL/KsJ db/db, 86 days after treatment): 5
- dose dependence of induced hair growth ([2]; undiluted, 50%, 25%): dose-dependent
- stimulation of hair growth at sites treated with n-butyl cyanoacrylate alone (C57BL/KsJ db/+ mice): clearly evident; also recorded: new hair growth was present
- histology, hair follicle density treated vs untreated area (Sprague Dawley rats; Sprague Dawley rat): much higher density of hair follicles in treated area
- hair growth on dorsum (photograph) (Sprague Dawley rats; Sprague Dawley rat, 23 days post application): hair growth appears as a rectangle pattern
- time over which no shedding of induced hair has been found (Sprague Dawley rats; rats, post treatment): over 210 days
- Hair growth [3]: 3+ (high hair regeneration with an area larger than 50% of the treated area)
- Hair growth [4]: 3+ (high hair regeneration with an area larger than 50% of the treated area)
- intensity of TGF-β2,3 stain in the epidermis (TGF-β2,3): greater than that of TGF-β1
